Data set [1] has as its system E. coli. Nature of the data set: Lysozyme assay (outer membrane disruption). The following applies: for bacterial lysis by lysozyme in the presence of sensitizer: 50 μg/ml lysozyme, 10 min; for bacterial lysis by sensitizer itself: absence of lysozyme. Format: cell-based. How it is done: Lysozyme assay to evaluate the disruption of Gram-negative bacteria out membrane by bacterial sensitizers. Lysozyme assay was performed based on literature reported method. E. coli was cultured in Mueller Hinton II cation-adjusted broth for overnight, centrifuged at 3000 g for 10 min, washed with HEPES buffer (pH=7.2) and then centrifuged again to obtain bacteria pallet. The pallet was then gently resuspended in HEPES buffer with 5 mM NaCN to obtain an E. coli suspension with OD600 between 0.8˜1.0. On a 96-well plate, each well was supplied with 100 μl lysozyme solution (100 μg/ml) containing 50 or 100 μg/ml bacterial sensitizers in HEPES buffer. To each well was added 100 μl E. coli suspension. The final concentration of lysozyme was 50 μg/ml. The plate was incubated at room temperature for 10 min and the OD600 was recorded. E. coli was also incubated with bacterial sensitizers in the absence of lysozyme to test if bacterial sensitizers would directly induce bacterial lysis. E. coli that was incubated with lysozyme alone or E. coli without any treatment were also used as negative control.

Data set [2] has as its system E. coli. Nature of the data set: Influence of exogenous LPS and Mg2+ on bacterial sensitizer. Type of data set: cell-based. The note with it: for effect of extra LPS in culture media on sensitization: LPS 0 to 40 μM; for effect of Mg2+ on sensitization activity: exogenous Mg2+; for Sensitization fold: rifampicin. How it is done: The MICs of bacterial sensitizer and antibiotic combination in the presence of LPS (ranging from 0 to 40 μM) or Mg^2+ (ranging from 0 to 20 mM) was determined as described above (Bacteria culture and MICs determination section).
Various experiments were then conducted to examine the molecular target(s). […] Briefly, E. coli was treated with 5 μg/ml MD-124 (about 10 μM) with varying concentrations of LPS (from 0 to 40 μM) for 20 h. Then OD600 was measured.
Briefly, E. coli was treated with […] MD-124 (about 10 μM) with varying concentrations of Mg^2+ (from 0 to 15 mM) for 20 h. Then OD600 was measured.

Data set [3] deals with NIH3T3 cells. As to the kind of experiment: Cytotoxicity on mammalian cells (CCK-8), NIH3T3. Format: cell-based. The note with it: 3T3 cell line; 24 h. In a few lines: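 Cells seeded a day ahead to ~80% confluency, exposed to varied compound concentrations for 24 h at 37° C, 5% CO2. CCK-8 added for a further 2 h and OD 450 nm read; viability expressed as percent of untreated control.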

Data set [4] has as its system E. coli (lipid A part of LPS). As to the kind of experiment: Dansyl-PMBN displacement assay. The note with it: E. coli with 10 μM Dansyl-PMBN; sensitizer 0 to 200 μM. Type of data set: binding. Here is the method:
Panel (C) depicts a Dansyl-PMBN displacement assay. […] The fluorescent intensity of 10 μM Dansyl-PMBN in HEPES buffer was recorded as baseline F0. Fluorescent intensity/%=(F1−Fx)/(F1−F0). […] All results are triplicates.
Dansyl-PMBN displacement assay. Dansyl-PMBN was synthesized according to literature procedure. Dansyl-PMBN was dissolved in H2O to make 500 μM stock. Bacterial sensitizers were dissolved in ethanol to make 10 mM stock solutions. […] The E. coli stock was centrifuged at 3000 g for 10 min, washed with HEPES buffer (pH=7.2) and then centrifuged again to obtain bacteria pallet. The pallet was then gently resuspended in HEPES buffer to obtain a E. coli suspension with OD600 about 0.3. The experiment was performed on 96-well plates. Each well was supplied with 100 μl coli suspension with 10 μM Dansyl-PMBN, then to each well, different concentrations of bacterial sensitizers were added to achieve a final concentration ranging from 0 to 200 μM.
Mg^2+ can bridge between adjacent lipid A and enhance the membrane integrity. […] This phenomenon was also observed on MD-100. The culture medium for E. coli is Muller Hinton Broth (Cation adjusted), which already has at least 0.5 mM Mg^2+, so the “zero concentration point of Mg^2+” in FIG. 4 represents the amount of exogenous Mg^2+, not the total Mg^2+ in the culture medium. […] A fluorescent conjugate of a polymyxin-B derivative (Dansyl-PMBN, Scheme 3), which would show increased fluorescent intensity after binding to the lipid A part of LPS, was used to further probe this issue. In the presence of another component that can also binding to lipid A, Dansyl-PMBN would be replaced, leading to decreased fluorescent intensity.

Data set [5] has as its system M. smegmatis. Nature of the data set: MIC on mycobacteria. The note with it: Mycolicibacterium smegmatis, read-out: MIC on mycobacteria. Type of data set: cell-based, Mycobacterium smegmatis.

Here are results for two molecules from patent publication US20230105108A1, “COMPOUNDS FOR THE TREATMENT OF BACTERIAL INFECTIONS AND POTENTIATION OF ANTIBIOTICS” (GEORGIA STATE UNIVERSITY RESEARCH FOUNDATION, INC., priority 2019, published 2023).

The structures appear in SMILES notation. Counter-ions that a name gives are not always drawn. Like-named read-outs stand apart in the source and are kept apart here.

A word on the CC50: it is the concentration giving 50% cytotoxicity. Lower therefore signals harm at low concentration. The term MIC denotes the least concentration at which growth counts as inhibited. For the molecule `Cc1cc(COc2ccc(C(=N)N)cc2)cc(COc2ccc(C(=N)N)cc2)c1` [MD-100, 4,4′-(((5-methyl-1,3-phenylene)bis(methylene))bis(oxy))dibenzimidamide dihydrochloride], the “bacterial lysis by lysozyme in the presence of sensitizer” value in data set [1] (50 μg/ml sensitizer) is listed as “quick bacterial lysis”. The “bacterial lysis by sensitizer itself” value in data set [1] is reported as “did not lead to bacterial lysis”. In data set [2], the “effect of extra LPS in culture media on sensitization” value was “abolished the sensitization effect” and the “effect of Mg2+ on sensitization activity” value is listed as “decreased the sensitization ability”. Half-maximal cytotoxicity in data set [3] (CC50) was put at 100 µM. In addition, in data set [4], the “displacement of Dansyl-PMBN (fluorescent intensity)” value is given as “able to displace Dansyl-PMBN although not as much as MD-124”. Also, the MIC in data set [5] was determined as 12 µM.

For `N=C(N)c1ccc(COc2cc(OCc3ccc(C(=N)N)cc3)cc(C(F)(F)F)c2)cc1` [MD-124, 4,4′-(((5-(trifluoromethyl)-1,3-phenylene)bis(oxy))bis(methylene)) dibenzimidamide dihydrochloride], the “bacterial lysis by lysozyme in the presence of sensitizer” value in data set [1] (25 μg/ml sensitizer) was “quick bacterial lysis”. Besides, the “bacterial lysis by sensitizer itself” value in data set [1] was “did not lead to bacterial lysis”. Further, the “MIC of rifampicin with 5 μg/ml MD-124” value is reported as 0.02 in data set [2] (LPS 0 μM, rifampicin only 10 μg/ml); 2.5 in data set [2] (LPS 5 μM); 2.5 in data set [2] (LPS 10 μM); 5 in data set [2] (LPS 20 μM); 5 in data set [2] (LPS 40 μM); 1.25 in data set [2] (LPS […]). Also, the “MIC of rifampicin with 5 μg/ml MD-124” value came out at 0.02 in data set [2] (Mg2+ 0 mM, rifampicin only 10 μg/ml); 0.02 in data set [2] (Mg2+ 1.25 mM); 1.25 in data set [2] (Mg2+ 5 mM); 2.5 in data set [2] (Mg2+ 10 mM); 5 in data set [2] (Mg2+ 15 mM); 0.04 in data set [2] (Mg2+ […]). In addition, the “effect of extra LPS in culture media on sensitization” value in data set [2] is recorded as “abolished the sensitization effect”. Moreover, the “effect of Mg2+ on sensitization activity” value in data set [2] is “dampened the bacterial sensitization activity”. Further, the Sensitization fold is given as 512 fold in data set [2] (5 μg/ml MD-124, LPS 0 μM); 4 fold in data set [2] (5 μg/ml MD-124, LPS 5 μM); 4 fold in data set [2] (5 μg/ml MD-124, LPS 10 μM); 2 fold in data set [2] (5 μg/ml MD-124, LPS 20 μM); 2 fold in data set [2] (5 μg/ml MD-124, LPS 40 μM); 8 fold in data set [2] (5 μg/ml MD-124, LPS […]). The Sensitization fold is given as 512 fold in data set [2] (5 μg/ml MD-124, Mg2+ 0 mM); 8 fold in data set [2] (5 μg/ml MD-124, Mg2+ 5 mM); 4 fold in data set [2] (5 μg/ml MD-124, Mg2+ 10 mM); 2 fold in data set [2] (5 μg/ml MD-124, Mg2+ 15 mM); 256 fold in data set [2] (5 μg/ml MD-124, Mg2+ […]). The CC50 in data set [3] worked out at 100 µM. In addition, the “displacement of Dansyl-PMBN (fluorescent intensity)” value in data set [4] is “steadily decreased in a concentration dependent fashion”. The MIC in data set [5] (M. smegmatis) was 12 µM.
